The text below walks through data of patent publication US5162322A, “Method of treating anxiety with 5-[(4-aryl or heteroaryl-1-piperazinyl]alkyl)-2-oxazolidinones” (A. H. Robbins Company, Incorporated, priority 1991, dated 1992).

Each structure is given as a SMILES string. Structures can show the parent of a compound that is named as a salt. Where two headings read alike, the source gives them in different places.

One experiment concerns the target T1, 5HT1A receptors (Canis lupus familiaris, UniProt Q6XXX9).
T1 sequence (Q6XXX9 1-423): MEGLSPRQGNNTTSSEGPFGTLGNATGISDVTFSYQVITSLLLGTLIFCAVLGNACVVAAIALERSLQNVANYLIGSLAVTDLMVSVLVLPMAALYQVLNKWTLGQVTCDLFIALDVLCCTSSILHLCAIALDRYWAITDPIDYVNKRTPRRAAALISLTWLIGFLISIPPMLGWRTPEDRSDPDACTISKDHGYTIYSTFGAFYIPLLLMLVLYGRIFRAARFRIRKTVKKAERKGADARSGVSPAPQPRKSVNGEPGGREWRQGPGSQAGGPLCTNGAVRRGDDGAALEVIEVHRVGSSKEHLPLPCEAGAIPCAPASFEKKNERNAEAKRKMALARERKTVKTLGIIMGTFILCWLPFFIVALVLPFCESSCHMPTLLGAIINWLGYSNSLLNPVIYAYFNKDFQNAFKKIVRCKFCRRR
Description: biochemical. Type of experiment: binding, dog.

The subject of the next experiment is mice. Description: exploratory light/dark method in mice (two-compartment light-dark activity box). Type of experiment: in vivo. Particulars: for minimal effective dose: Mus musculus, read-out: Light/Dark: minimum effective dose; for Light/Dark: % time spent in lit area: at minimum effective dose.
Setting [1] is: competitive binding vs [^3 H]8-OH-DPAT, dog hippocampus membrane, buspirone value is an average, read-out: 5HT1A IC50.

Description for 5HT1A receptors: (§1) Anxiolytic properties were determined using an in vitro assay in which competive binding with the 5-HT1A specific agonist, [^3 H]8-hydroxy-2-(di-n-propylamino)tetralin(8-OH-DPAT) to 5HT1A receptors in the dog hippocampus membrane preparation is measured [Hall et al, J. Neurochem. […] Several compounds were also tested in mice is the exploratory light/dark method as described by Young and Johnson, Soc. […] 1988, 14, 207 in which the exploratory behavior of a mouse is a two-compartment light-dark activity box is monitored electrically and behavioral variables such as time spent in the lit versus dark compartments, rearings in either of the two compartments, number of transitions between the two compartments and other exploratory behavioral variables are recorded.
Description for mice: as §1

With `O=C1CC2(CCCC2)CC(=O)N1CCCCN1CCN(c2ncccn2)CC1` [Buspirone, buspirone, reference compound], the midpoint of inhibition against 5HT1A receptors, the IC50, lay at 13.2 nM. Besides, the minimal effective dose in the experiment on mice (ip) and with mice (po) was 5.62 mg/kg each time. The “Light/Dark: % time spent in lit area” value with mice (mice, IP) is recorded as 51%; in the experiment with mice (mice, PO), 54%. Consider `CN1CC(CCCCN2CCN(c3ccccc3)CC2)OC1=O` (stereo not drawn) [Example 1, 3-Methyl-5-[4-(4-phenyl-1-piperazinyl)butyl]-2-oxazolidinone], for which, at 5HT1A receptors (setting [1]), the IC50 – broadly, the midpoint of a concentration-inhibition curve – is 59 nM. Further, in the experiment on mice (mice, IP), the minimal effective dose is 10 mg/kg and the “Light/Dark: % time spent in lit area” value came to 56%. For the molecule `CN1CC(CCCCN2CCN(c3ccccn3)CC2)OC1=O` (stereo not drawn) [Example 2, 3-Methyl-5-[4-[4-(2-pyridinyl)-1-piperazinyl]butyl]-2-oxazolidinone], at 5HT1A receptors (setting [1]), the IC50 came out at 61 nM. For the same molecule, in the experiment with mice (mice, IP), the minimal effective dose was found to be 3.16 mg/kg and the “Light/Dark: % time spent in lit area” value was found to be 53%.

On to `COc1ccccc1N1CCN(CCCCC2CN(C)C(=O)O2)CC1.Cl.Cl` (stereo not drawn) [Example 3, 5-[4-[4-(2-Methoxyphenyl)-1-piperazinyl]butyl]-3-methyl-2-oxazolidinone dihydrochloride], for which, at 5HT1A receptors (setting [1]), the half-maximal inhibitory concentration (IC50) amounted to 15 nM. Also, in the experiment with mice (mice, IP), the minimal effective dose came out at 3.16 mg/kg and the “Light/Dark: % time spent in lit area” value amounted to 53%. In the case of `CN1CC(CCCCN2CCN(c3ncccn3)CC2)OC1=O` (stereo not drawn) [Example 4, 3-Methyl-5-[4-[4-(2-pyrimidinyl)-1-piperazinyl]butyl]-2-oxazolidinone], the concentration for half-maximal inhibition (IC50) at 5HT1A receptors (setting [1]) was found to be 190 nM.

Take `COc1ccccc1N1CCN(CCCC2CN(C)C(=O)O2)CC1` (stereo not drawn) [Example 5, 5-[3-[4-(2-Methoxyphenyl)-1-piperazinyl]propyl]-3-methyl-2-oxazolidinone hydrochloride hydrate (2:2:3)]: the half-maximal inhibitory concentration (IC50) on 5HT1A receptors (setting [1]) was 29 nM. In the case of `CN1CC(CCCN2CCN(c3ccccn3)CC2)OC1=O` (stereo not drawn) [Example 6, 3-Methyl-5-[3-[4-(2-pyridinyl)-1-piperazinyl]propyl]-2-oxazolidinone hydrochloride hydrate (2:4:1)], the IC50 at 5HT1A receptors (setting [1]) is 110 nM. On to `CN1CC(CCCN2CCN(c3ncccn3)CC2)OC1=O` (stereo not drawn) [Example 7, 3-Methyl-5-[3-[4-(2-pyrimidinyl)-1-piperazinyl]propyl]-2-oxazolidinone], for which the IC50 at 5HT1A receptors (setting [1]) was found to be 510 nM.

`CCOc1ccccc1N1CCN(CCCC2CN(C)C(=O)O2)CC1` (stereo not drawn) [Example 8, 5-[3-[4-(2-Ethoxyphenyl)-1-piperazinyl]propyl]-3-methyl-2-oxazolidinone]: the concentration for half-maximal inhibition (IC50) on 5HT1A receptors (setting [1]) is 22 nM. The same measure, in the same setting: for `CCOc1ccccc1N1CCN(CCCCC2CN(C)C(=O)O2)CC1` (stereo not drawn) [Example 9, 5-[4-[4-(2-Ethoxyphenyl)-1-piperazinyl]butyl]-3-methyl-2-oxazolidinone dihydrochloride] the value was 16 nM.

On to `CN1CC(CCCN2CCN(c3ccccc3O)CC2)OC1=O` (stereo not drawn) [Example 10, 5-[3-[4-(2-hydroxyphenyl)-1-piperazinyl]propyl]-3-methyl-2-oxazolidinone], for which, at 5HT1A receptors (setting [1]), the IC50 was determined as 110 nM.

`CN1CC(CCCCN2CCN(c3ccccc3O)CC2)OC1=O` (stereo not drawn) [Example 11, 5-[4-[4-(2-Hydroxyphenyl)-1-piperazinyl]butyl]-3-methyl-2-oxazolidinone]: the IC50 at 5HT1A receptors (setting [1]) worked out at 40 nM. Regarding `C=CCOc1ccccc1N1CCN(CCCCC2CN(C)C(=O)O2)CC1` (stereo not drawn) [Example 12, 8-methyl-5-[4-[4-[2(2-propenyloxy)phenyl]-1-piperazinyl]butyl]-2-oxazolidinone hydrochloride hydrate (2:4:1)], at 5HT1A receptors (setting [1]), the 50% inhibitory concentration (IC50) came out at 20 nM. In the experiment with mice (mice, IP), the minimal effective dose was 1 mg/kg and the “Light/Dark: % time spent in lit area” value was 66%. With `COc1ccccc1N1CCN(CCCCC2CN(c3ccccc3)C(=O)O2)CC1` (stereo not drawn) [Example 13, 5-[4-[4-(2-Methoxyphenyl)-1-piperazinyl]butyl]-3-phenyl-2-oxazolidinone hydrochloride hydrate (2:2:1)], the 50% inhibitory concentration (IC50) on 5HT1A receptors (setting [1]) was 2.2 nM. As to `O=C1OC(CCCCN2CCN(c3ccccn3)CC2)CN1c1ccccc1` (stereo not drawn) [Example 14, 3-Phenyl-5-[4-[4-(2-pyridinyl)-1-piperazinyl]butyl]-2-oxazolidinone], at 5HT1A receptors (setting [1]), the IC50 was 7.7 nM. Same read-out and setting: for `O=C1OC(CCCCN2CCN(c3ncccn3)CC2)CN1c1ccccc1` (stereo not drawn) [Example 15, 3-Phenyl-5-[4-[4-(2-pyrimidinyl)-1-piperazinyl]butyl]-2-oxazolidinone] the value was 29 nM; for `O=C1OC(CCCCN2CCN(c3ccccc3)CC2)CN1c1ccccc1` (stereo not drawn) [Example 16, 3-Phenyl-5-[4-(4-phenyl-1-piperazinyl)butyl]-2-oxazolidinone], 8.2 nM; for `O=C1OC(CCCCN2CCN(c3ccccc3O)CC2)CN1c1ccccc1` (stereo not drawn) [Example 17, 5-[4-[4-(2-hydroxyphenyl)-1-piperazinyl]butyl]-3-phenyl-2-oxazolidinone], 15 nM.

In the case of `CCOc1ccccc1N1CCN(CCCCC2CN(c3ccccc3)C(=O)O2)CC1` (stereo not drawn) [Example 18, 5-[4-[4-(2-Ethoxyphenyl)-1-piperazinyl]butyl]-3-phenyl-2-oxazolidinone hydrochloride hydrate (2:4:1)], the IC50 on 5HT1A receptors (setting [1]) was found to be 2 nM. With `O=C1OC(CCCN2CCN(c3ccccn3)CC2)CN1c1ccccc1` (stereo not drawn) [Example 19, 3-Phenyl-5-[3-[4-(2-pyridinyl)-1-piperazinyl]propyl]-2-oxazolidinone], at 5HT1A receptors (setting [1]), the 50% inhibitory concentration (IC50) was 57 nM. Take `O=C1OC(CCCN2CCN(c3ncccn3)CC2)CN1c1ccccc1` (stereo not drawn) [Example 20, 3-Phenyl-5-[3-[4-(2-pyrimidinyl)-1-piperazinyl]propyl]2-oxazolidinone]: the IC50 at 5HT1A receptors (setting [1]) was 170 nM.

As to `CCOc1ccccc1N1CCN(CCCC2CN(c3ccccc3)C(=O)O2)CC1` (stereo not drawn) [Example 21, 5-[3-[4-(2-Ethoxyphenyl)-1-piperazinyl]propyl]-3-phenyl-2-oxazolidinone hydrochloride hydrate (2:4:1)], the IC50 at 5HT1A receptors (setting [1]) amounted to 18 nM.

`O=C1OC(CCCN2CCN(c3ccccc3)CC2)CN1c1ccccc1` (stereo not drawn) [Example 22]: at 5HT1A receptors (setting [1]), the 50% inhibitory concentration (IC50) is 50 nM.

For `COc1ccccc1N1CCN(CCCC2CN(c3ccccc3)C(=O)O2)CC1` (stereo not drawn) [Example 23, 5-[3-[4-(2-Methoxyphenyl)-1-piperazinyl]propyl]-3-phenyl-2-oxazolidinone hydrochloride hydrate (1:2)], at 5HT1A receptors (setting [1]), the IC50 worked out at 11 nM.
